Assays:
[1] = molecular target: T1, monoamine oxidase A (MAO-A) (Homo sapiens, UniProt P21397); assay: Monoamine Oxidase A (MAO-A) Inhibitor Screening Kit; assay type: biochemical; settings: 10-dose, 2-fold dilution from 100 μM; substrate tyramine; read-out: MAO-A inhibition IC50
T1 construct: purchased Sigma-Aldrich
T1 sequence (P21397 1-527): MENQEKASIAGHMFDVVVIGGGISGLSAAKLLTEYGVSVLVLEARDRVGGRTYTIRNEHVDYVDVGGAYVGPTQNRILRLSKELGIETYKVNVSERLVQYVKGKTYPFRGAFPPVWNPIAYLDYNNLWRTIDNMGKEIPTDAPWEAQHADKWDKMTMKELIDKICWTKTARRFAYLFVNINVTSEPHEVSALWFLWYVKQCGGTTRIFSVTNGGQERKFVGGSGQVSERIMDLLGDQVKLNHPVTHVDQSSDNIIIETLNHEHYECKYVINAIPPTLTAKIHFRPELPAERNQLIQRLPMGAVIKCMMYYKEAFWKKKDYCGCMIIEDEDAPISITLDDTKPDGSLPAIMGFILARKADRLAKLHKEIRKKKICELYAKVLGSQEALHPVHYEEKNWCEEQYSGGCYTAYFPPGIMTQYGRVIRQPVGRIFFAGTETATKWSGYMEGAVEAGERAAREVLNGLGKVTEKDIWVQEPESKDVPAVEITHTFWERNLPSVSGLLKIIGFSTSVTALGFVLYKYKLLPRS
Description: The production of H2O2 generated by the oxidative deamination of the MAO substrate tyramine was measured fluorometrically using the CLARIOstar microplate reader at Ex/Em=535/587 nm. Data is represented as the percentage of MAO enzymatic activity inhibition relative to the log of the compound and a curve fit for the control compound. Corresponding IC50 values were calculated.

[2] = tested on: human aortic endothelial cells from patient with Type II diabetes (DII-HAEC); assay: Cell viability/proliferation, Cell-Titer Blue, DII-HAEC; assay type: cell-based; settings: 0-800 μM, 24, 48 or 72 hours
Description: (§1) Human peripheral blood mononuclear cells (PBMCs) were fractionated using the Ficoll Plaque fractionation method from whole blood obtained from the Australian Red Cross Blood Bank (ARCB) under ethic approval (#304/12). Cells were harvested fresh on the day of the experiments and maintained in complete-RPMI-1640 medium supplemented with 10% FBS, 2 mM L-glutamine and 20 μg/mL gentamicin at 37° C., 5% (v/v) CO2. Human aortic endothelial cells (HAECs, ATCC) and the equivalent cells taken for patients with Type II diabetes (DII-HAECs, ATCC) were cultured in endothelial cell growth medium (ECM) supplemented with 100 U/ml penicillin, 100 μg/ml streptomycin, 0.25 μg/ml fungizone, 2 mM L-glutamine, 5 U/ml heparin, 30-50 μg/ml endothelial cell growth supplement (Technoclone, Vienna, Austria). All cells were passaged by typsination and seeded into 6 well culture dishes at cell densities of 1×10^6 cells per well; at 37° C., 5% (v/v) CO2. […] Cell viability was measured using the Cell-Titer Blue® Assay kit (Promega, Madison, Wis., USA) according to the manufacturer's instructions. Cell-Titer Blue reagent was added to each well and incubated for 4 hours at 37° C., 5% CO2, before reading fluorescence intensity (550 nm excitation; 615 nm emission) using the CLARIOstar (BMG LABTECH, Offenburg, Germany) microplate reader. […]

COX-2 [3] = molecular target: T2, COX-2 (Homo sapiens, UniProt P35354); assay: COX-1/2 inhibitor screening kit (BioVision), COX-2; assay type: biochemical; settings: 10-dose, 2-fold dilution from 1000 μM; read-out: COX-2 inhibition IC50
T2 construct: purchased BioVision
T2 sequence (P35354 18-604): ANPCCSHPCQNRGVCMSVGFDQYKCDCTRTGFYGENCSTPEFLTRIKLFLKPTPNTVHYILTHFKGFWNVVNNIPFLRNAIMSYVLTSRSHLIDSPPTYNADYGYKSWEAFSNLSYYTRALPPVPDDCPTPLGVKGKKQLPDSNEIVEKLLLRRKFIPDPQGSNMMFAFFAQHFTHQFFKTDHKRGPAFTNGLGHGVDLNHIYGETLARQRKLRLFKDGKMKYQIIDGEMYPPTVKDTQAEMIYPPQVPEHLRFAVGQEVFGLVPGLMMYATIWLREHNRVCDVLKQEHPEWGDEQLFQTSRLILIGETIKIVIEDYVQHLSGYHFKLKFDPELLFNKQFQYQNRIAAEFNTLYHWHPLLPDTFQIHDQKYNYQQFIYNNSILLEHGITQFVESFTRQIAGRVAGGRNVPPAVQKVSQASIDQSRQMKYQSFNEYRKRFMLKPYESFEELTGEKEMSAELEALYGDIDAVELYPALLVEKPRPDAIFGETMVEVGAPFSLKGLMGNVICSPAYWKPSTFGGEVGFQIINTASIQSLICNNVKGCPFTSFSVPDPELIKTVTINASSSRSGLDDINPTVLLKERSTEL
Description: (§2) Inhibition of individual COX-1 and COX-2 enzymes by MMBHTE and oleocanthal was measured using the COX-1/2 inhibitor screening kit (BioVision, Milpatas, Calif., USA), according to the manufacturer's instructions. […] The production of prostaglandin G2, the intermediate product generated by the COX enzyme in the presence of arachidonic acid is measured by coupling with HRP and COX substrate and fluorescence was measured using the CLARIOstar microplate reader at Ex/Em=535/587 nm. Data is represented at the percentage of COX enzymatic activity inhibition relative to the log of the compound and a curve fit for the control compound. Corresponding IC50 values were calculated.
(§3) FIG. 6A and FIG. 6B show the inhibition activities of MMBHTE and Oleocanthal on COX-1 and COX-2, respectively. The data shown in FIG. 6A and FIG. 6B indicates all the test samples fell within the detectable range. The data shown in FIG. 6A and FIG. 6B is represented as the percentage of COX enzymatic activity inhibition relative to the log of the concentrations and best-fit curves for MMBHTE and Oleocanthal. Corresponding IC50 values were calculated. […] Therefore, MMBHTE is a […] COX-1 and COX-2 inhibitor.

[4] = tested on: primary human aortic endothelial cells from a healthy patient (h-HAEC); assay: Cell viability/proliferation, Cell-Titer Blue, h-HAEC; assay type: cell-based; settings: 0-800 μM, 24, 48 or 72 hours
Description: as §1

[5] = tested on: peripheral blood mononuclear cells (PBMC); assay: Cell viability/proliferation, Cell-Titer Blue, PBMC; assay type: cell-based, human; settings: 0-800 μM, 24, 48 or 72 hours
Description: as §1

[6] = tested on: primary skin fibroblasts (BJ); assay: Cell viability/proliferation, Cell-Titer Blue, BJ; assay type: cell-based, human; settings: 0-800 μM, 24, 48 or 72 hours
[7] = molecular target: T3, lysine-specific demethylase 1 (LSD1) (Homo sapiens, UniProt O60341); assay: EpiQuik Histone Demethylase LSD1 inhibitor screening assay; assay type: biochemical; settings: 10-dose, 2-fold dilution from 200 μM; read-out: LSD1 enzyme activity inhibition IC50
T3 construct: purchased EpiGentek

COX-1 [8] = molecular target: T4, COX-1 (Ovis aries, UniProt P05979); assay: COX-1/2 inhibitor screening kit (BioVision), COX-1; assay type: biochemical; settings: 10-dose, 2-fold dilution from 1000 μM; read-out: COX-1 inhibition IC50
T4 construct: purchased BioVision
T4 sequence (P05979 25-600): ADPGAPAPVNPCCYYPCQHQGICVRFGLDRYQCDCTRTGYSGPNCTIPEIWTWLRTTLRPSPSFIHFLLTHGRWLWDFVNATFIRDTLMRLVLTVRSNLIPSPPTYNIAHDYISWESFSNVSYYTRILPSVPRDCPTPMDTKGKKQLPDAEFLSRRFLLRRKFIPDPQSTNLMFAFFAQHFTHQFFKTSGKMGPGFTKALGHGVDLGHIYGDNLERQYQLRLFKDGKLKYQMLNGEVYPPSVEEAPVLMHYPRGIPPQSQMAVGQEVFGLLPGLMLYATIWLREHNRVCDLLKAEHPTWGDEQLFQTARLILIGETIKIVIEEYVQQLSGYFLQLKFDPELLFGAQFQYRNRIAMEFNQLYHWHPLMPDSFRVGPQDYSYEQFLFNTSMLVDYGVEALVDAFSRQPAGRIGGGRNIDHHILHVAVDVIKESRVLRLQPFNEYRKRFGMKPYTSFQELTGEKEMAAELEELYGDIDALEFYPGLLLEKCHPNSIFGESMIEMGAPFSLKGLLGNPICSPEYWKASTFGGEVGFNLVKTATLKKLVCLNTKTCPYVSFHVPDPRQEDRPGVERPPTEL
Description: as §2, §3

lipoxygenase = settings: in vitro; cited from earlier work
COX-1 [9] = molecular target: COX-1 (Homo sapiens, UniProt P23219); settings: in vitro; cited from earlier work
COX-2 [10] = molecular target: T2, COX-2; settings: in vitro; cited from earlier work

Chain of COX-1 (Homo sapiens, UniProt P23219) (P23219 24-599): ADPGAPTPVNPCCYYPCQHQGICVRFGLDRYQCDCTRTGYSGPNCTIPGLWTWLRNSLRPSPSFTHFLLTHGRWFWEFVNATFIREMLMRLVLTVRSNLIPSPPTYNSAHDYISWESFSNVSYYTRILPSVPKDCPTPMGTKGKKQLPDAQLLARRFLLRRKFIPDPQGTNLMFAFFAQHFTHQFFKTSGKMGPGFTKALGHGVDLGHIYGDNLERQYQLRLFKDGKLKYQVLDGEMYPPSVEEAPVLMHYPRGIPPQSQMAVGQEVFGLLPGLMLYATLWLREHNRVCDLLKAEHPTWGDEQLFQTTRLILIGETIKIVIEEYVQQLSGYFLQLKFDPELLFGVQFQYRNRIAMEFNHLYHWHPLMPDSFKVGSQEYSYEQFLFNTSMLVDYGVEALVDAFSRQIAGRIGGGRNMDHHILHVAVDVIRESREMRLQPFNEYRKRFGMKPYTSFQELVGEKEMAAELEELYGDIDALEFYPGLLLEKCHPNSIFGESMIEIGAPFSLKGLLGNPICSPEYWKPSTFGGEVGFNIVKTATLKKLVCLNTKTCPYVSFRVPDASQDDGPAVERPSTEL

SMILES	IC50 [1]	toxicity profile (cell viability) [2]	IC50 (COX-2 [3])	toxicity profile (cell viability) [4]	toxicity profile (cell viability) [5]	toxicity profile (cell viability) [6]	IC50 [7]	IC50 (COX-1 [8])	effect on lipoxygenase (lipoxygenase)	inhibition of COX-1 (COX-1 [9])	inhibition of COX-2 (COX-2 [10])
COC(=O)[C@H](O)CC(=O)OCCc1ccc(O)c(O)c1 (stereo in doubt) [MMBHTE, methyl malate-β-hydroxytyrosol ester]	443 ± 158 nM	very favorable toxicity profile	81600 ± 7700 nM	very favorable toxicity profile	very favorable toxicity profile	very favorable toxicity profile	11.9 nM	1720 ± 90 nM	–	–	–
OCCc1ccc(O)c(O)c1 [HT, hydroxytyrosol, reference compound]	39100 ± 31500 nM	–	–	–	–	–	21.8 nM	–	–	–	–
C/C=C(/C=O)[C@@H](CC=O)CC(=O)OCCc1ccc(O)cc1 [Oleocanthal]	–	–	352000 ± 7700 nM	–	–	–	–	430 ± 50 nM	no effect	dose-dependent inhibitor	dose-dependent inhibitor

Source: patent publication US20200179327A1, “USE OF PHENOLIC COMPOUNDS FROM OLEA EUROPAEA” (McCord Research, Inc., priority 2017, published 2020)
